Experimental data as given in BindingDB's records for doi:10.1074/jbc.M512374200 (German Cancer Research Center, 2006).

Tests used:
[1] = target: cAMP-dependent protein kinase catalytic subunit alpha [V123M] (Bos taurus, UniProt P00517, V123M); assay: Kinase Activity Assay; conditions: pH 6.8; 25 °C
Protocol: (§1) The enzyme activity was assayed by using an ATP regenerative NADH consuming system. The reaction was started with adding ATP to the mixture containing enzyme, substrate, and inhibitor. The decrease of NADH was time-dependent, and was measured at 340 nm with three independent measurements per data point. IC50 values were calculated using SigmaPlot 8.0 and Origin 5 software.

[2] = target: cAMP-dependent protein kinase catalytic subunit alpha [Q181K,T183A] (Bos taurus, UniProt P00517, Q181K/T183A); assay: Kinase Activity Assay
Protocol: as §1

[3] = target: cAMP-dependent protein kinase catalytic subunit alpha [V123M,Q181K,T183A] (Bos taurus, UniProt P00517, Q181K/T183A/V123M); assay: Kinase Activity Assay
Protocol: as §1

[4] = target: cAMP-dependent protein kinase catalytic subunit alpha [L49I,V123M,Q181K,T183A] (Bos taurus, UniProt P00517, L49I/Q181K/T183A/V123M); assay: Kinase Activity Assay
Protocol: as §1

[5] = target: cAMP-dependent protein kinase catalytic subunit alpha [V123M,T183A] (Bos taurus, UniProt P00517, T183A/V123M); assay: Kinase Activity Assay
Protocol: as §1

[6] = target: cAMP-dependent protein kinase catalytic subunit alpha [E127D] (Bos taurus, UniProt P00517, E127D); assay: Kinase Activity Assay
Protocol: as §1

[7] = target: T1, Rho-associated protein kinase 2 (Bos taurus, UniProt Q28021); assay: Kinase Activity Assay
Protocol: as §1

[8] = target: cAMP-dependent protein kinase catalytic subunit alpha (Bos taurus, UniProt P00517); assay: Kinase Activity Assay; conditions: pH 6.8; 25 °C
Protocol: as §1

[9] = target: cAMP-dependent protein kinase catalytic subunit alpha [L49I] (Bos taurus, UniProt P00517, L49I); assay: Kinase Activity Assay; conditions: pH 6.8; 25 °C
Protocol: as §1

[10] = target: cAMP-dependent protein kinase catalytic subunit alpha [T183A] (Bos taurus, UniProt P00517, T183A); assay: Kinase Activity Assay
Protocol: as §1

[11] = target: cAMP-dependent protein kinase catalytic subunit alpha [L49I,Q181K,T183A] (Bos taurus, UniProt P00517, L49I/Q181K/T183A); assay: Kinase Activity Assay
Protocol: as §1

[12] = target: cAMP-dependent protein kinase catalytic subunit alpha [L49I,V123M,E127D,Q181K,T183A] (Bos taurus, UniProt P00517, E127D/L49I/Q181K/T183A/V123M); assay: Kinase Activity Assay
Protocol: as §1

[13] = target: cAMP-dependent protein kinase catalytic subunit alpha [L49I,T183A] (Bos taurus, UniProt P00517, L49I/T183A); assay: Kinase Activity Assay
Protocol: as §1

[14] = target: T1, Rho-associated protein kinase 2; assay: Kinase Inhibition Assay
Protocol: The kinase activity was determined by incubation of enzyme and its substrate, and test compound, in the presence ATP/[gamma-33P] ATP. After incubation, the reaction was stopped, and the 33P-phosphorylated substrate was determined by scintillation counting.

T1 sequence (Q28021 whole entry): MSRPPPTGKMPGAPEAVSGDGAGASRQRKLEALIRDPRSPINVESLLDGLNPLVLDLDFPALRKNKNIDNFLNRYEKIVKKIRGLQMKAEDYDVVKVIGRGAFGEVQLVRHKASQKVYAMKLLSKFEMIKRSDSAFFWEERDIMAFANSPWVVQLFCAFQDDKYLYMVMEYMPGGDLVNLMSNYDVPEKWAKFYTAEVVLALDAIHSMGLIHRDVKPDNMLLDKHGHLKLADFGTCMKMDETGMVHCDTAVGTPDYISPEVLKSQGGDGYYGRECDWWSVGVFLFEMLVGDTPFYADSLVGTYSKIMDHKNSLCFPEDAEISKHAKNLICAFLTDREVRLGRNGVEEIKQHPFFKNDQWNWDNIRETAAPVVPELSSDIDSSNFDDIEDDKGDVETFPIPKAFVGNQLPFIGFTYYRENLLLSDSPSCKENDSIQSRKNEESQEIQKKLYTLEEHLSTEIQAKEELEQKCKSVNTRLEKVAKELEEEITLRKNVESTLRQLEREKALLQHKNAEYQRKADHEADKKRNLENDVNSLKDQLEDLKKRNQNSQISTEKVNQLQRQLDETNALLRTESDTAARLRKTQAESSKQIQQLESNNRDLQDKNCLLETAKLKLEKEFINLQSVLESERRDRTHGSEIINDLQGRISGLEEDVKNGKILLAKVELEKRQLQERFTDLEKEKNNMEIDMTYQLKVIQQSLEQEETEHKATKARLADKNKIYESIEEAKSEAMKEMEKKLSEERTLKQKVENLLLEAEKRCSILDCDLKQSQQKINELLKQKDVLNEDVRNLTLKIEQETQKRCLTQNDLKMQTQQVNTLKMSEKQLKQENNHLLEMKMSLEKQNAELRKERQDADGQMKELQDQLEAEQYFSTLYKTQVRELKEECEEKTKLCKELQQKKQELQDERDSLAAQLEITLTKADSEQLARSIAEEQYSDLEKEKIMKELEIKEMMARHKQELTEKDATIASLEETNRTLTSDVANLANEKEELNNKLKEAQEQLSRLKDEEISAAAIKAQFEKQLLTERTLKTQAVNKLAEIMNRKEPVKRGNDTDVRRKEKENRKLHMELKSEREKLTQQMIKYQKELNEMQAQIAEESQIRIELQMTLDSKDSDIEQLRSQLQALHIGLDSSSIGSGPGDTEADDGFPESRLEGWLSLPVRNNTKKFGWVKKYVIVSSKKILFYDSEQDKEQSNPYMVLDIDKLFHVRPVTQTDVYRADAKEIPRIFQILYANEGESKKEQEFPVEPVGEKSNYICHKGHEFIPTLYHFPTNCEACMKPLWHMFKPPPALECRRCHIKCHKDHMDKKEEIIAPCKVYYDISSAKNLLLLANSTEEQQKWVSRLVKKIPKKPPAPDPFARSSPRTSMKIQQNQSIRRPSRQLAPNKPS

IC50 [1] [nM] | IC50 [2] [nM] | IC50 [3] [nM] | IC50 [4] [nM] | IC50 [5] [nM] | IC50 [6] [nM] | IC50 [7] [nM] | IC50 [8] [nM] | IC50 [9] [nM] | IC50 [10] [nM] | IC50 [11] [nM] | IC50 [12] [nM] | IC50 [13] [nM] | SMILES | IC50 [14] [nM]
1520 | 109 | 223 | 89 | 293 | 493 | < 45 | 394 | 426 | 109 |  |  |  | Cc1cncc2cccc(S(=O)(=O)N3CCCNC[C@@H]3C)c12 [H-1152] | 
60000 | 9000 | 25000 | 18000 | 31000 | 16000 | 500 | 42000 | 28000 | 9000 | 6000 | 6000 | 12000 | C[C@@H](N)[C@H]1CC[C@H](C(=O)Nc2ccncc2)CC1 [4-[(1R)-1-aminoethyl]-N-(pyridin-4-yl)cyclohexane-1-carboxamide] | 
 |  |  |  |  |  |  |  |  |  |  |  |  | CN[C@@H]1C[C@H]2O[C@@](C)([C@@H]1OC)n1c3ccccc3c3c4c(c5c6ccccc6n2c5c31)C(=O)NC4 | 1.2
222 | < 45 | 68 | 2010 |  | 1820 | 1800 | 56 | 10300 | < 45 | 5540 | 1300 |  | CCCCCCOC(=O)[C@]1(O)C[C@@H]2O[C@@]1(C)n1c3ccccc3c3c4c(c5c6ccccc6n2c5c31)C(=O)NC4 [hexyl (15R,16S,18S)-16-hydroxy-15-methyl-3-oxo-28-oxa-4,14,19-triazaoctacyclo[12.11.2.1^{15,18}.0^{2,6}.0^{7,27}.0^{8,13}.0^{19,26}.0^{20,25}]octacosa-1(26),2(6),7(27),8(13),9,11,20(25),21,23-nonaene-16-carboxylate] | 

SMILES | IC50 [1] [nM] | IC50 [2] [nM] | IC50 [3] [nM] | IC50 [4] [nM] | IC50 [5] [nM] | IC50 [6] [nM] | IC50 [7] [nM] | IC50 [8] [nM] | IC50 [9] [nM] | IC50 [10] [nM] | IC50 [11] [nM] | IC50 [12] [nM] | IC50 [13] [nM] | IC50 [14] [nM]
O=S(=O)(c1cccc2cnccc12)N1CCCNCC1 [AT877] |  |  |  |  |  |  | 485 |  |  |  |  |  |  | 
